11 molecules from patent publication US20240270715A1, “INHIBITORS OF TRANSGLUTAMINASES” (ZEDIRA GMBH, priority 2021, published 2024) can be followed below.

Data set [1] deals with T1, recombinant human transglutaminase 2 (Homo sapiens, UniProt P21980).
T1 sequence (P21980 1-687): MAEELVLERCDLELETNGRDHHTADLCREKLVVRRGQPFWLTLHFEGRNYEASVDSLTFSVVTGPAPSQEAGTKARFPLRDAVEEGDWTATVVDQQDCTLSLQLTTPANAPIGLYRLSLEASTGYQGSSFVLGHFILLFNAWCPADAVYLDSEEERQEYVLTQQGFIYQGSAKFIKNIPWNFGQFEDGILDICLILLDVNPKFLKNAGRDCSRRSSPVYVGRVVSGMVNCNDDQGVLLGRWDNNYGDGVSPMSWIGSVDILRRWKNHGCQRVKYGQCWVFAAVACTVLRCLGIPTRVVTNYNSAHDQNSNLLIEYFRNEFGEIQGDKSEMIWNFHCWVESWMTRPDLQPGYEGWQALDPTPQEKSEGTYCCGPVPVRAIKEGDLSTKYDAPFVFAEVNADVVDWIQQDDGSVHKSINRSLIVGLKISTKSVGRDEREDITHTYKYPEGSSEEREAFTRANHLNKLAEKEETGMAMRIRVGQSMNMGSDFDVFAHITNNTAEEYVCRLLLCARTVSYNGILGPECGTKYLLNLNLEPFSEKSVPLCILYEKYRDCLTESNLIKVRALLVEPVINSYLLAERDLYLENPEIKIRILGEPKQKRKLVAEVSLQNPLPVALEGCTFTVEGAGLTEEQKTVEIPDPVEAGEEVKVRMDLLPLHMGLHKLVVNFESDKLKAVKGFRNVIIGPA
As to the kind of experiment: Transglutaminase assay: incorporation of dansylcadaverine into dimethylcasein (DCC-assay). It is filed as biochemical. As for the experimental part: To illustrate the advantage of branched alkyl moieties over aromatic moieties, we refer to reference compounds Ref. 2 (ZED1227, U.S. Pat. No. 9,434,763 B2) and Ref. 3 (A8, ZED1047). Inhibition data were determined using the classical fluorescent transamidation assay (dansylcadaverine incorporation into methylated casein, DCC-assay) as described [Büchold, C.; Hils, M.; Gerlach, U.; Weber, J.; Pelzer, C.; Heil, A.; Aeschlimann, D.; Pasternack, R. Features of ZED1227: The First-In-Class Tissue Transglutaminase Inhibitor Undergoing Clinical Evaluation for the Treatment of Celiac Disease. Cells 2022, 11, 1667. https://doi.org/10.3390/cells11101667]. Casein is one of the best known high molecular weight (24 kDa) protein substrates for transglutaminases. Please note, the IC50 value of Ref. 3 (A8) published in U.S. Pat. No. 9,434,763 B2 cannot be compared to the present data, relying on a fluorogenic isopeptidase assay.
To this extent, inhibition data were determined using the classical fluorescent transamidation assay (dansylcadaverine incorporation into methylated casein, DCC-assay) as described in Büchold et al. [Büchold, C.; Hils, M.; Gerlach, U.; Weber, J.; Pelzer, C.; Heil, A.; Aeschlimann, D.; Pasternack, R. Features of ZED1227: The First-In-Class Tissue Transglutaminase Inhibitor Undergoing Clinical Evaluation for the Treatment of Celiac Disease. Cells 2022, 11, 1667. https://doi.org/10.3390/cells11101667]. Casein is one of the best known high molecular weight (24 kDa) protein substrates for transglutaminases. Inhibition data of the inventive compounds was compared with inhibition of compounds disclosed in U.S. Pat. No. 9,434,763 B2, particularly, compound A8, which is denoted herein as Reference 3. It is noteworthy that the IC50 values of compounds A8 published in U.S. Pat. No. 9,434,763 B2 and E16 from U.S. Pat. No. 11,072,634 B2 cannot be compared to the present data, relying on a fluorogenic isopeptidase assay.
For the determination of potency of inhibitors against tissue transglutaminase, the incorporation of dansylcadaverine into dimethylcasein (Zedira product T036, Lorand et al., Anal Biochem, 1971, 44:221-31) was measured using recombinant human transglutaminase 2 (Zedira Product T022).
The tissue transglutaminase is diluted in buffer (50 mM Tris-HCl, 7.5 mM CaCl2, 150 mM NaCl, pH=7.4). The final concentration of TG2 in the assay is 10 nM.
A 10 mM inhibitor stock solution is prepared in DMSO, and from this a serial 1:2-fold dilution series is prepared also in DMSO. Each of the initial dilutions is subsequently diluted 1:50-fold with buffer (50 mM Tris-HCl, 7.5 mM CaCl2, 150 mM NaCl, pH=7.4) to yield the final working dilutions containing 2% (v/v) DMSO. 15 μl of inhibitor working dilution are added per well of a 96 well microtiter plate. As control, 15 μl of a 2% (v/v) DMSO solution prepared using the buffer mentioned above are added per well.
Immediately before starting the assay, 600 μl transglutaminase working solution are added to 11.4 ml assay buffer (50 mM Tris-HCl, 10 mM CaCl2, 10 mM glutathione, 2.5% glycerol, 16.7 μM dansylcadaverine, 4 μM N,N-dimethylcasein, 200 mM NaCl, pH=8.0). 285 μl of this reaction mix are added per well containing the inhibitor.
Increase in fluorescence is measured using λex=330 nm and λemG=500 nm at […] for 30 min. A slope of the increase in fluorescence between 20 and 30 min is calculated for determination of the IC50 value (inhibitor concentration at which 50% of the initial activity is blocked).
Analysis of enzymatic activity is performed by calculation of the slope of an increase in fluorescence intensity. IC50 values are calculated by plotting the enzymatic activity (as percentage from control containing 2% DMSO instead of inhibitor) against the inhibitor concentration. IC50 is defined as the inhibitor concentration blocking 50% of initial enzyme activity.

Data set [2] in a line: Log D by shake flask method (octanol / PBS pH 7.4, HPLC). The format is physicochemical. Conditions: octanol / PBS pH 7.4, shake flask; read-out: logD. How it is done: In order to classify the inventive compounds according to their lipophilicity, Log D values (distribution coefficient) were determined by means of the well-established shake flask method, measuring the partition of a compound between an octanol and phosphate-buffered saline (PBS, pH 7.4) by HPLC.
Compounds with a moderate lipophilicity (Log D values from 0 to 3) are usually advantaged for oral absorption, being in balance between solubility and permeability. However, sophisticated formulation of a compound might improve oral bioavailability for highly lipophilic compounds.

Data set [3] is described as follows: Caco-2 permeability assay (CacoReady kit). The format is in vitro ADME. The following applies: human. How it is done:
Permeability coefficients (Papp values) were obtained from Caco-2 barrier studies predicting oral/intestinal bioavailability of the tested compounds. The assays were performed by using CacoReady™ ready-to-use kits from ReadyCell according to the manufacturers protocol.
(In general: Caco-2 monolayers are a common model of the intestinal barrier.)

The mark [4] stands for this setting: recombinant human TG2 10 nM, dansylcadaverine/dimethylcasein, read-out: IC50 TG2.

Like-named read-outs stand apart in the source and are kept apart here.

As a reminder, the IC50 is the point on the concentration scale where inhibition reaches its midpoint. A word on the logD: it is lipophilicity at a set pH, counting ionised and neutral species. A word on the Papp: it is a coefficient for how fast a substance crosses the barrier. As for `CCNC(=O)C(=O)CC[C@H](NC(=O)c1cncn1C)C(=O)Nc1cccn(CC(=O)N(C)C23CC4CC(CC(C4)C2)C3)c1=O` [Compound I-3, (S)-N1-ethyl-N6-(1-(2-(1-adamantyl(methyl)amino)-2-oxoethyl)-2-oxo-1,2-dihydropyridin-3-yl)-5-(1-methyl-1H-imidazole-5-carboxamido)-2-oxohexanediamide], the half-inhibitory concentration (IC50) in data set [1] (setting [4]) lay within 600 to 3500 nM. Besides, the logD in data set [2] lay in the range of 1 to 3. In data set [3], this molecule returned a Papp below 1 ×10⁻⁶ cm/s.

Take `CCOC(=O)/C=C/CC[C@H](NC(=O)c1cccnc1)C(=O)Nc1ccc(C)n(CC(=O)NCCc2ccccc2)c1=O` [Ref. 3, reference compound]: the 50% inhibitory concentration (IC50) was 4270 nM in data set [1] (DCC-assay, values in text, read-out: IC50) and 3500 to 10000 nM in data set [1] (setting [4]). For the same molecule, the pH-dependent lipophilicity (logD) in data set [2] lay within 1 to 3. The molecule further gave an apparent permeability coefficient (Papp) in data set [3] below 1 ×10⁻⁶ cm/s.

For `CCNC(=O)C(=O)CC[C@H](NC(=O)c1cc(C(=O)OC)cc([N+](=O)[O-])c1)C(=O)Nc1cccn(CC(=O)NC2(C(=O)OC)C3CC4CC(C3)CC2C4)c1=O` (stereo partly drawn) [Compound I-64, (S)-methyl 3-(6-(ethylamino)-1-(1-(2-(methyl 2-aminoadamantane-2-carboxylate)-2-oxoethyl)-2-oxo-1,2-dihydropyridin-3-ylamino)-1,5,6-trioxohexan-2-ylcarbamoyl)-5-nitrobenzoate], the IC50 in data set [1] (setting [4]) is below 150 nM. Besides, in data set [2], the logD was 1 to 3. This molecule also yielded an apparent permeability coefficient (Papp) in data set [3] of 1 to 10 ×10⁻⁶ cm/s.

Take `CCNC(=O)C(=O)CC[C@H](NC(=O)c1cncn1C)C(=O)Nc1cccn(CC(=O)NC[C@@H]2CC[C@H]3C[C@@H]2C3(C)C)c1=O` [Compound I-13, (S)-N1-(1-(2-(((1S,2R,5S)-6,6-dimethylbicyclo[3.1.1]heptan-2-yl)methylamino)-2-oxoethyl)-2-oxo-1,2-dihydropyridin-3-yl)-N6-ethyl-2-(1-methyl-1H-imidazole-5-carboxamido)-5-oxohexanediamide]: the IC50 in data set [1] (setting [4]) was in the range of 600 to 3500 nM. Besides, the logD in data set [2] lay within 1 to 3. The Papp in data set [3] was below 1 ×10⁻⁶ cm/s.

Regarding `CCNC(=O)C(=O)CC[C@H](NC(=O)c1coc(C(C)=O)n1)C(=O)Nc1cccn(CC(=O)NC23CC(C2)C3)c1=O` [Compound I-89, (S)-2-(2-acetyloxazole-4-carboxamido)-N1-(1-(2-(bicyclo[1.1.1]pentan-1-ylamino)-2-oxoethyl)-2-oxo-1,2-dihydropyridin-3-yl)-N6-ethyl-5-oxohexanediamide], in data set [1] (setting [4]), the IC50 is below 150 nM. The pH-dependent lipophilicity (logD) in data set [2] is below 1. In data set [3], the Papp is below 1 ×10⁻⁶ cm/s.

With `CCNC(=O)C(=O)CC[C@H](NC(=O)[C@@H]1CCCN1C(C)=O)C(=O)Nc1cccn(CC(=O)NC2C3CC4CC(C3)CC2C4)c1=O` (stereo partly drawn) [Compound I-55, (S)-2-((S)-1-acetylpyrrolidine-2-carboxamido)-N6-ethyl-N1-(1-(2-(2-adamantylamino)-2-oxoethyl)-2-oxo-1,2-dihydropyridin-3-yl)-5-oxohexanediamide], the IC50 in data set [1] (setting [4]) lay in the range of 150 to 600 nM. In addition, the logD in data set [2] lay in the range of 1 to 3. This molecule also showed a Papp in data set [3] below 1 ×10⁻⁶ cm/s.

For the molecule `CCNC(=O)C(=O)CC[C@H](NC(=O)c1cncn1C)C(=O)Nc1cccn(CC(=O)NC23CC4CC(CC(Br)(C4)C2)C3)c1=O` [Compound I-10, (S)-N1-ethyl-N6-(1-(2-(3-bromoadamantane-1-amino)-2-oxoethyl)-2-oxo-1,2-dihydropyridin-3-yl)-5-(1-methyl-1H-imidazole-5-carboxamido)-2-oxohexanediamide], the concentration for half-maximal inhibition (IC50) in data set [1] (setting [4]) lay within 150 to 600 nM. Further, the logD in data set [2] is below 1. Also, the Papp in data set [3] was below 1 ×10⁻⁶ cm/s.

Consider `CCNC(=O)C(=O)CC[C@H](NC(=O)C1Cc2ccccc2C1)C(=O)Nc1cccn(CC(=O)NC2C3CC4CC(C3)CC2C4)c1=O` (stereo partly drawn) [Compound I-39, (S)-2-(2,3-dihydro-1H-indene-2-carboxamido)-N6-ethyl-N1-(1-(2-(2-adamantylamino)-2-oxoethyl)-2-oxo-1,2-dihydropyridin-3-yl)-5-oxohexanediamide], for which the IC50 in data set [1] (setting [4]) was below 150 nM. Moreover, the logD in data set [2] was in the range of 3 to 5. The apparent permeability (Papp) in data set [3] was 1 to 10 ×10⁻⁶ cm/s.

As for `CCNC(=O)C(=O)CC[C@H](NC(=O)c1ccnnc1)C(=O)Nc1cccn(CC(=O)NC2C3CCC2CC3)c1=O` (stereo partly drawn) [Compound I-72, (S)-N1-(1-(2-(bicyclo[2.2.1]heptan-7-ylamino)-2-oxoethyl)-2-oxo-1,2-dihydropyridin-3-yl)-N6-ethyl-5-oxo-2-(pyridazine-4-carboxamido)hexanediamide], the IC50 in data set [1] (setting [4]) is 150 to 600 nM. Also, in data set [2], the logD is below 1. Also, the Papp in data set [3] was below 1 ×10⁻⁶ cm/s.

In the case of `CCNC(=O)C(=O)CC[C@H](NC(=O)c1noc(C)n1)C(=O)Nc1cccn(CC(=O)NC23CC(C2)C3)c1=O` [Compound I-116, (S)-N1-(1-(2-(bicyclo[1.1.1]pentan-1-ylamino)-2-oxoethyl)-2-oxo-1,2-dihydropyridin-3-yl)-N6-ethyl-2-(5-methyl-1,2,4-oxadiazole-3-carboxamido)-5-oxohexanediamide], the half-maximal inhibitory concentration (IC50) in data set [1] (setting [4]) was 600 to 3500 nM. Also, the logD in data set [2] was below 1. This molecule also displayed a Papp in data set [3] below 1 ×10⁻⁶ cm/s.

`CCNC(=O)C(=O)CC[C@H](NC(=O)c1cc(Cl)sc1Cl)C(=O)Nc1cccn(CC(=O)NC2C3CC4CC(C3)CC2C4)c1=O` (stereo partly drawn) [Compound I-46, (S)-2-(2,5-dichlorothiophene-3-carboxamido)-N6-ethyl-N1-(1-(2-(2-adamantylamino)-2-oxoethyl)-2-oxo-1,2-dihydropyridin-3-yl)-5-oxohexanediamide]: the concentration for half-maximal inhibition (IC50) in data set [1] (setting [4]) is below 150 nM. Besides, in data set [2], the logD fell in the range of 3 to 5. In data set [3], this molecule came in with a Papp of 1 to 10 ×10⁻⁶ cm/s.
